According to patent publication US12303497B2, “Anti-androgens for the treatment of metastatic castration-sensitive prostate cancer” (priority 2019, dated 2025):

System: patients with metastatic castration-sensitive prostate cancer (mCSPC)

Structure (SMILES): CNC(=O)c1ccc(N2C(=S)N(c3cnc(C#N)c(C(F)(F)F)c3)C(=O)C23CCC3)cc1F [Apalutamide, 4-[7-(6-cyano-5-trifluoromethylpyridin-3-yl)-8-oxo-6-thioxo-5,7-diazaspiro[3.4]oct-5-yl]-2-fluoro-N-methylbenzamide]
- Grade ≥3 rash led to discontinuation (7 patients): 1.3%
- Skin rash led to treatment discontinuation (12 patients): 2.3%
- Skin rash led to dose reduction (28 patients): 5.3%
- Adverse events led to discontinuation (42 patients): 8.0%
- Skin rash led to dose interruption (44 patients): 8.4%
- AE leading to discontinuation: Alanine aminotransferase increased (All Grades): 0 no. (%)
- AE leading to discontinuation: Anxiety (All Grades): 1 (0.2) no. (%)
- AE leading to discontinuation: Atrial fibrillation (All Grades): 1 (0.2) no. (%)
- AE leading to discontinuation: Cardiac failure (All Grades): 0 no. (%)
- AE leading to discontinuation: Cardio-respiratory arrest (All Grades): 1 (0.2) no. (%)
- AE leading to discontinuation: Cardiogenic shock (All Grades): 1 (0.2) no. (%)
- AE leading to discontinuation: Cerebrovascular disorder (All Grades): 1 (0.2) no. (%)
- AE leading to discontinuation: Cognitive disorder (All Grades): 0 no. (%)
- AE leading to discontinuation: Dehydration (All Grades): 1 (0.2) no. (%)
- AE leading to discontinuation: Dyspnea (All Grades): 0 no. (%)
- AE leading to discontinuation: Euphoric mood (All Grades): 1 (0.2) no. (%)
- AE leading to discontinuation: Fatigue (All Grades): 4 (0.8) no. (%)
- AE leading to discontinuation: Hot flush (All Grades): 1 (0.2) no. (%)
- AE leading to discontinuation: Hypothermia (All Grades): 0 no. (%)
- AE leading to discontinuation: Infections (All Grades): 1 (0.2) no. (%)
- AE leading to discontinuation: Intracranial hemorrhage (All Grades): 0 no. (%)
- AE leading to discontinuation: Ischemic cardiac events (All Grades): 2 (0.4) no. (%)
- AE leading to discontinuation: Large intestinal ulcer perforation (All Grades): 1 (0.2) no. (%)
- AE leading to discontinuation: Lip swelling (All Grades): 1 (0.2) no. (%)
- AE leading to discontinuation: Loss of consciousness (All Grades): 0 no. (%)
- AE leading to discontinuation: New cancer neoplasm (All Grades): 7 (1.3) no. (%)
- AE leading to discontinuation: Parkinson's disease (All Grades): 1 (0.2) no. (%)
- AE leading to discontinuation: Pleural effusion (All Grades): 0 no. (%)
- AE leading to discontinuation: Pulmonary edema (All Grades): 0 no. (%)
- AE leading to discontinuation: Pulmonary embolism (All Grades): 1 (0.2) no. (%)
- AE leading to discontinuation: Radiculopathy (All Grades): 1 (0.2) no. (%)
- AE leading to discontinuation: Rash (grouped term) (All Grades): 12 (2.3) no. (%)
- AE leading to discontinuation: Respiratory failure (All Grades): 0 no. (%)
- AE leading to discontinuation: Seizure (All Grades): 2 (0.4) no. (%)
- AE leading to discontinuation: Subdural hemorrhage (All Grades): 0 no. (%)
- AE leading to discontinuation: Sudden cardiac death (All Grades): 1 (0.2) no. (%)
- AE leading to discontinuation: Sudden death (All Grades): 0 no. (%)
- AE leading to discontinuation: Suicide (All Grades): 0 no. (%)
- AE leading to dose interruption: Acute kidney injury (All Grades): 1 (0.2) no. (%)
- AE leading to dose interruption: Acute respiratory failure (All Grades): 1 (0.2) no. (%)
- AE leading to dose interruption: Allergy to chemicals (All Grades): 1 (0.2) no. (%)
- AE leading to dose interruption: Anemia (All Grades): 2 (0.4) no. (%)
- AE leading to dose interruption: Angina unstable (All Grades): 0 no. (%)
- AE leading to dose interruption: Anxiety (All Grades): 2 (0.4) no. (%)
- AE leading to dose interruption: Arthralgia (All Grades): 2 (0.4) no. (%)
- AE leading to dose interruption: Aspartate aminotransferase or alanine aminotransferase increased (All Grades): 7 (1.3) no. (%)
- AE leading to dose interruption: Asthenia (All Grades): 3 (0.6) no. (%)
- AE leading to dose interruption: Atrial fibrillation (All Grades): 1 (0.2) no. (%)
- AE leading to dose interruption: Bile duct obstruction (All Grades): 0 no. (%)
- AE leading to dose interruption: Blood alkaline phosphatase increased (All Grades): 1 (0.2) no. (%)
- AE leading to dose interruption: Cardiac amyloidosis (All Grades): 0 no. (%)
- AE leading to dose interruption: Cardiac disorder (All Grades): 0 no. (%)
- AE leading to dose interruption: Cardiac failure (All Grades): 0 no. (%)
- AE leading to dose interruption: Cardiac failure congestive (All Grades): 1 (0.2) no. (%)
- AE leading to dose interruption: Cerebrovascular accident (All Grades): 1 (0.2) no. (%)
- AE leading to dose interruption: Cheilitis (All Grades): 1 (0.2) no. (%)
- AE leading to dose interruption: Chronic hepatitis (All Grades): 1 (0.2) no. (%)
- AE leading to dose interruption: Chronic obstructive pulmonary disease (All Grades): 2 (0.4) no. (%)
- AE leading to dose interruption: Cognitive disorder (All Grades): 1 (0.2) no. (%)
- AE leading to dose interruption: Confusional state (All Grades): 1 (0.2) no. (%)
- AE leading to dose interruption: Constipation (All Grades): 1 (0.2) no. (%)
- AE leading to dose interruption: Decreased appetite (All Grades): 2 (0.4) no. (%)
- AE leading to dose interruption: Dehydration (All Grades): 0 no. (%)
- AE leading to dose interruption: Depression (All Grades): 1 (0.2) no. (%)
- AE leading to dose interruption: Diabetes mellitus (All Grades): 1 (0.2) no. (%)
- AE leading to dose interruption: Diarrhea (All Grades): 1 (0.2) no. (%)
- AE leading to dose interruption: Diplegia (All Grades): 0 no. (%)
- AE leading to dose interruption: Dizziness (All Grades): 1 (0.2) no. (%)
- AE leading to dose interruption: Dyspnea (All Grades): 1 (0.2) no. (%)
- AE leading to dose interruption: Dysuria (All Grades): 1 (0.2) no. (%)
- AE leading to dose interruption: Edema (All Grades): 1 (0.2) no. (%)
- AE leading to dose interruption: Eyelid edema (All Grades): 1 (0.2) no. (%)
- AE leading to dose interruption: Facial edema (All Grades): 1 (0.2) no. (%)
- AE leading to dose interruption: Fall (All Grades): 1 (0.2) no. (%)
- AE leading to dose interruption: Fatigue (All Grades): 6 (1.1) no. (%)
- AE leading to dose interruption: Febrile neutropenia (All Grades): 1 (0.2) no. (%)
- AE leading to dose interruption: Gamma-glutamyltransferase increased (All Grades): 1 (0.2) no. (%)
- AE leading to dose interruption: Gastric ulcer perforation (All Grades): 1 (0.2) no. (%)
- AE leading to dose interruption: Gastritis (All Grades): 0 no. (%)
- AE leading to dose interruption: General physical health deterioration (All Grades): 1 (0.2) no. (%)
- AE leading to dose interruption: Hallucination (All Grades): 1 (0.2) no. (%)
- AE leading to dose interruption: Headache (All Grades): 1 (0.2) no. (%)
- AE leading to dose interruption: Hematoma (All Grades): 1 (0.2) no. (%)
- AE leading to dose interruption: Hematuria (All Grades): 2 (0.4) no. (%)
- AE leading to dose interruption: Hemorrhage intracranial (All Grades): 1 (0.2) no. (%)
- AE leading to dose interruption: Hemorrhagic erosive gastritis (All Grades): 1 (0.2) no. (%)
- AE leading to dose interruption: Hepatic cirrhosis (All Grades): 1 (0.2) no. (%)
- AE leading to dose interruption: Hepatic failure (All Grades): 0 no. (%)
- AE leading to dose interruption: Hip fracture (All Grades): 1 (0.2) no. (%)
- AE leading to dose interruption: Hot flush (All Grades): 1 (0.2) no. (%)
- AE leading to dose interruption: Hydronephrosis (All Grades): 0 no. (%)
- AE leading to dose interruption: Hyperbilirubinemia (All Grades): 1 (0.2) no. (%)
- AE leading to dose interruption: Hypersensitivity (All Grades): 1 (0.2) no. (%)
- AE leading to dose interruption: Hypertension (All Grades): 6 (1.1) no. (%)
- AE leading to dose interruption: Hypertriglyceridemia (All Grades): 2 (0.4) no. (%)
- AE leading to dose interruption: Hypokalemia (All Grades): 1 (0.2) no. (%)
